Measurements published in patent US11667637B2, “Fused imidazo-piperidine JAK inhibitors” (THERAVANCE BIOPHARMA R&D IP, LLC, priority 2017, dated 2023).

Legend:
[1] = test system: IL-6 stimulated STAT3 phosphorylation in CD3+ T cells; test: Inhibition of IL-6 stimulated pSTAT3 in CD3+ T cells; assay type: cell-based, human; conditions: statement in words
From the text: Assay 10: Cellular JAK Potency Assay: Inhibition of IL-6 Stimulated pSTAT3 in CD3+ T Cells
A protocol analogous to that of Assay 9 was used to determine the potency of the test compound for inhibition of interleukin-6 (IL-6) stimulated STAT3 phosphorylation. An Alexa Fluor 647 conjugated anti-pSTAT3 antibody (pY705, Clone 4/P, BD Biosciences) was used to detect STAT3 phosphorylation.

[2] = test system: IL-5 mediated survival of human eosinophils; test: IL-5 mediated eosinophil survival assay; assay type: cell-based; conditions: statement in words
Protocol: Assay 6: IL-5 Mediated Eosinophil Survival Assay
The potency of the test compound for IL-5 mediated eosinophil survival was measured in human eosinophils isolated from human whole blood (AllCells). Because IL-5 signals through JAK, this assay provides a measure of JAK cellular potency.
Human eosinophils were isolated from fresh human whole blood (AllCells) of healthy donors. Blood was mixed with 4.5% Dextran (Sigma-Aldrich) in a 0.9% sodium chloride solution (Sigma-Aldrich). Red blood cells were left to sediment for 35 minutes. The leukocyte rich upper layer was removed and layered over Ficoll-Paque (GE Healthcare) and centrifuged at 600 g for 30 minutes. The plasma and mononuclear cell layers were removed before the granulocyte layer was lysed with water to remove any contaminating red blood cells. […] Purity was analyzed using a LSRII flow cytometer (BD Biosciences). […]
After cytokine stimulation, cells were centrifuged at 300 g for 5 min and washed twice with cold DPBS (Life Technologies). To access viability and apoptosis, cells were incubated with Propidium Iodide (Thermo Fisher Scientific) and APC Annexin V (BD Biosciences) and analyzed using a LSRII flow cytometer (BD Biosciences). IC50 values were determined from analysis of the viability curves of percent cell viability vs compound concentration. Data are expressed as pIC50 (negative decadic logarithm IC50) values.

## CCc1cc(O)c(F)cc1-c1ccc2c(-c3nc4c([nH]3)CN(C(C)C)[C@H](C(=O)N3CC[C@H](N(C)C)C3)C4)n[nH]c2c1 [Example 3]
[1]
  inhibition of IL-6 signaling: inhibit IL-6 signaling

## CCCN1Cc2[nH]c(-c3n[nH]c4cc(-c5cc(F)c(O)cc5CC)ccc34)nc2C[C@H]1C(=O)N1C[C@@H]2C[C@H]1CN2C [Example 1, ((S)-2-(6-(2-ethyl-5-fluoro-4-hydroxyphenyl)-1H-indazol-3-yl)-5-propyl-4,5,6,7-tetrahydro-3H-imidazo[4,5-c]pyridin-6-yl)((1S,4S)-5-methyl-2,5-diazabicyclo-[2.2.1]heptan-2-yl)methanone]
[2]
  inhibition of IL-5 mediated human eosinophil survival: potently inhibit
[1]
  inhibition of IL-6 signaling: inhibit IL-6 signaling
